Measured values taken from PubChem BioAssay AID179 (DTP/NCI, 2004).
Active and inactive are the calls of the source.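 How the source made its calls: active means compounds giving half or more protection of infected cells from virus-caused growth loss, again on retest; inactive means the rest.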

Tested on: CEM cells HIV-1 protection, formazan growth assay
Assay: NCI AIDS Antiviral Assay
Settings: for IC50: measured here: growth of uninfected CEM cells
Method in brief: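 Human CEM cells, uninfected and HIV-1-infected, received five drug concentrations, and growth was read by soluble formazan assay. Compounds giving at least 50% protection were retested; reproducible 100% protection defined confirmed active.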

SMILES	EC50 [µM]	IC50 [µM]	outcome
CC(C)=CCN1CCCn2c(=S)[nH]c3cccc(c32)C1=O	> 200	> 200	–
COc1ccc2c(c1)CCc1cnoc1-2	> 178	110	–
COC(=O)C(=O)C(C(=O)C(=O)Nc1ccc(F)cc1)c1nc2ccc([N+](=O)[O-])cc2[nH]c1=O (stereo not drawn)	> 550	245	–
CCOC(=O)C1C2c3ccccc3C(c3ccccc32)C1C(=O)OCC (stereo not drawn)	> 200	> 200	–
C(=Nc1ccc(C2=NCCN2)cc1)c1ccc(C=Nc2ccc(C3=NCCN3)cc2)cc1	> 200	11.7	–
CC1(C)OCC(C(O)C2OC(C)(C)OC2C=O)O1 (stereo not drawn)	> 200	> 200	–
O=c1c2nn3c(=O)n(-c4ccccc4)c(=O)c3nn2c(=O)n1-c1ccccc1	> 200	> 200	–
O=C([O-])c1n[nH]c([O-])c1N=Nc1ccc(/C=C/c2ccc(N=Nc3c(C(=O)[O-])n[nH]c3[O-])cc2S(=O)(=O)[O-])c(S(=O)(=O)[O-])c1.[Cu+2].[Cu+2].[Na+]	> 50.1	> 50.1	–
CCOC(=O)Cn1c(=O)[nH]c(=O)c2[nH]cnc21	> 1050	> 1050	–
CC(C)N1C(=O)C(C#N)=C(c2ccccc2)SC1c1ccccc1 (stereo not drawn)	> 30.2	> 30.2	–
Cc1ccc(O)c(N=O)c1.[Cu+2]	> 200	2.63	–
O=C1C(c2ccc([N+](=O)[O-])cc2)=[N+]([O-])c2ccccc21	–	–	inactive
COC(=O)c1sc2c(=O)c(C(=O)OC)c(C(=O)OC)sc2c(=O)c1C(=O)OC	> 151	12	–
O=S(Cl)C(Cl)=C(Cl)Cl (stereo not drawn)	> 200	40.7	–
COC(C/C(=C/CO[Si](C(C)C)(C(C)C)C(C)C)C(=O)N(C(=O)OC(C)(C)C)c1ccccc1I)OC	> 200	77.6	–
O=C1C2=C(C(=O)c3ccccc31)C(O)(S(=O)(=O)O)C(O)(S(=O)(=O)O)C1N=CC=CC21 (stereo not drawn)	> 200	3.39	–
COc1cccc(C=O)c1[O-].COc1cccc(C=O)c1[O-].[Ni+2]	> 50.1	35.5	–
COC(=O)CCCC=C(c1cc(Cl)c(OC)c(C2=NC(C)(C)CO2)c1)c1cc(Cl)c(OC)c(C2=NC(C)(C)CO2)c1	–	–	inactive
Cc1cn2c(=O)c3ncn(C4OC(CO)C(O)C4O)c3n(C)c2n1 (stereo not drawn)	–	–	inactive
COc1cc2c(cc1OC)C13CCN4CC5CCOC6CC(=O)N2C1C6C5CC43 (stereo not drawn)	> 200	> 200	–
CCOC(=O)c1cc2cc([N+](=O)[O-])ccc2oc1=O	> 105	> 105	–

SMILES	EC50 [µM]	IC50 [µM]	outcome
C=C1C2=C(CCCC2)C(=O)OC12CCCCC2	> 100	> 100	–
CCOC(=O)COC(=O)c1cc(C(=CCC[C@H]2CC[C@@]3(C)[C@@H](CC[C@@H]4[C@@H]3CC[C@]3(C)[C@@H](C(C)CCCC(C)C)CC[C@@H]43)C2)c2cc(Cl)c(OCC(=O)OCC)c(C(=O)OCC(=O)OCC)c2)cc(Cl)c1OCC(=O)OCC (stereo partly drawn)	> 200	> 200	–
O=C([O-])c1ccccn1.O=C([O-])c1ccccn1.[Cu+2]	> 200	7.76	–
COc1ccc(/C=C2/SC(=Nc3ccccc3)N(NC(=O)Cc3ccccc3)C2=O)cc1	> 214	148	–
CCCc1cc(=O)oc2c3c(cc(OC(C)C)c12)O[C@H](C)[C@H](C)C3=O	> 200	30.2	–
Cc1ccc2nc(NC(=O)C(=O)CC(=O)c3cccc4ccccc34)sc2c1	> 33.9	> 33.9	–
CCOC(=O)/C(C#N)=C1/C(O)=C(C(=O)OC)C(C(=O)OC)=C1C(=O)OC	–	–	inactive
CCCc1cc(=O)oc2c3c(cc(OC)c12)O[C@H](C)[C@H](C)[C@@H]3O	> 200	38.9	–
S=c1cc(S)sc2c1c(=S)sc1nc3ccccn3c(=S)c12	> 9.55	> 9.55	–
CCOC(=O)[C@@]1(C)CC(O)C(=O)N1C (stereo partly drawn)	–	–	inactive
[N-]=[N+]=C1C(=O)NC(=O)N2C3OC(CO[C@@H]12)C(O)C3O (stereo partly drawn)	> 200	> 200	–
C/C(=C\CNc1ncnc2c1ncn2C1CCCCO1)COP(=O)(O)O (stereo not drawn)	–	–	inactive
COC1CCC(=O)N1CCn1c(SCc2ccccc2)nc2ccccc21 (stereo not drawn)	> 93.3	> 93.3	–
C/C=C/C(=O)[O-].N.N.N.N.N.[Co+3].[O-][Cl+3]([O-])([O-])[O-]	–	–	inactive
COc1ccc(/C=c2\[nH]c3nc(=O)c(N4CCCCC4)c(N)n3c2=O)cc1	> 200	120	–
O=C1Cc2c([nH]c3ccccc23)-c2cc(Br)ccc2N1	> 41.7	> 41.7	–
O=C(Nc1ccccc1)c1cc(S(=O)(=O)N2CCNNC2=O)c(S)cc1Cl	10.2	166	–
COc1cc2c(cc1OC)C(=O)N1CCCC1C(=O)S2 (stereo not drawn)	–	–	inactive
O=[N+]([O-])C(=C1Nc2ccccc2N1)C(Cl)=C(Cl)Cl	> 200	105	–
CC(C)=CCC[C@@H](C)C1=C(N)C(O)=C(C)C(=O)C1=O	> 200	13.5	–
CN(C)C(=O)Oc1c(-c2ccccc2)c(=O)n2c3ccccc3n3c(=O)n(C)c(=O)c1c23	> 1.26	> 1.26	–

SMILES	EC50 [µM]	IC50 [µM]	outcome
O=C(CCC(=O)Nc1cccc(C(F)(F)F)c1)CC(=O)c1ccc2ccccc2c1	–	–	inactive
C=CCc1cc(-c2cc(CC=C)c(O)c(CN(CC)CC)c2)cc(CN(CC)CC)c1O	> 200	93.3	–
COc1cc(Cc2cnc(N)nc2N)cc(OC)c1OC	> 200	> 200	–
O=C(O)CC1OCC=C2CN3CCC45C6=CC(=O)C(=O)C([N+](=O)[O-])=C6NC4C1C2CC35 (stereo not drawn)	> 200	28.2	–
CCOP(=O)(CC(=O)c1cc2ccccc2[nH]1)OCC	> 851	437	–
COc1ccc(CC(=O)c2ccc(O)cc2O)cc1	> 200	81.3	–
COc1cc2c(c(OC)c1OC)C1CCCCC1SCC2O (stereo not drawn)	> 398	77.6	–
COC1CC(OC)C2OC(c3ccccc3)OCC2O1 (stereo not drawn)	–	–	inactive
Cc1cc2c(cc1C)[n+](=O)c(N1CCN(c3ccc([N+](=O)[O-])cc3)CC1)c(C#N)n2[O-]	> 50.1	> 50.1	–
COc1cc(-c2cc(-c3cc([N+](=O)[O-])c(/C=N/NC(=O)c4ccncc4)o3)ccc2OC)ccc1C	> 269	55	–
COC(=O)/C=C/c1cc(=O)n2c(nc3ccccc32)s1	> 200	> 200	–
Cc1ccc2c(c1C)CC1(Cc3ccc(C)c(C)c3C1=O)C2=O (stereo not drawn)	> 100	> 100	–
COCCOc1cc(C)cc(/C=C(C)/C=C/C2=C(C)CCCC2(C)C)n1	–	–	inactive
CN(C)CCNC(=O)Cn1cnc2cccc([N+](=O)[O-])c2c1=O	> 200	> 200	–
O=c1oc2ccccc2c(O)c1Oc1ccccc1	> 200	195	–
CC1=Nc2ccccc2SC(c2c(Cl)cccc2Cl)C1 (stereo not drawn)	> 22.4	4.57	–
CC1(C)N=C(C(N)=O)c2ncn(-c3ccccc3)c2N1	> 200	> 200	–
COc1ccc(NC(=O)/C(=N/NC(N)=S)C2C(=O)NC(=S)NC2=O)c(OC)c1	> 589	> 589	–
O=C(Nc1ccccc1-c1nc2ccccc2[nH]c1=O)c1ccccc1	> 52.5	29.5	–
